Laboratory results reported in US10206909B2, “3-(1H-pyrrolo[2,3-B]pyridin-2-yl)-1H-pyrazolo[4,3-B]pyridines and therapeutic uses thereof” (Samumed, LLC, priority 2015, dated 2019).

Columns and labels:
[1] = tested on: primary human fibroblasts derived from IPF patients (LL29 cells); test: Inhibition of the fibrotic process: αSMA staining in TGF-β1 treated fibroblasts; assay type: cell-based; conditions: Fibroblast; for EC50: 96 h, LL29 cells, TGF-β1 20 ng/mL, 4 days, % αSMA positive cells; for inhibition at 10 µM: given where EC50 >10 μM, LL29, αSMA, read-out: percent inhibition at 10 μM
Text: Representative compounds were screened using primary human fibroblasts (derived from IPF patients) treated with TGF-β1 to determine their ability to inhibit the fibrotic process.
Human Fibroblast Cell Culture: Primary human fibroblasts derived from IPF patients (LL29 cells) [^1Xiaoqiu Liu, et. al., “Fibrotic Lung Fibroblasts Show Blunted Inhibition by cAMP Due to Deficient cAMP Response Element-Binding Protein Phosphorylation”, Journal of Pharmacology and Experimental Therapeutics (2005), 315(2), 678-687; ^2Watts, K. L., et. al., “RhoA signaling modulates cyclin D1 expression in human lung fibroblasts; implications for idiopathic pulmonary fibrosis”, Respiratory Research (2006), 7(1), 88] were obtained from American Type Culture Collection (ATCC) and expanded in F12 medium supplemented with 15% Fetal Bovine Serum and Penicillin/Streptomycin.
Compound Screening: Each compound was dissolved in DMSO as a 10 mM stock and used to prepare compound source plates. Serial dilution (1:2, 11-point dose-response curves from 10 μM to […]) and compound transfer was performed using the ECHO 550 (Labcyte, Sunnyvale, Calif.) into 384-well clear bottom assay plates (Greiner Bio-One) with appropriate DMSO backfill for a final DMSO concentration of 0.1%. LL29 cells are plated at 1,500 cells/well in 80 μL/well F12 medium supplemented with 1% Fetal Bovine Serum. One hour after addition of the cells, TGF-β1 (Peprotech; 20 ng/mL) was added to the plates to induce fibrosis (ref. 1 and 2 above). Wells treated with TGF-β1 and containing DMSO were used as controls. Cells were incubated at 37° C. and 5% CO2 for 4 days. Following incubation for 4 days, SYTOX green nucleic acid stain (Life Technologies [Thermo Fisher Scientific]) was added to the wells at a final concentration of 1 μM and incubated at room temperature for 30 min. Cells were then fixed using 4% formaldehyde (Electron Microscopy Sciences), washed 3 times with PBS followed by blocking and permeabilization using 3% Bovine Serum Albumin (BSA; Sigma) and 0.3% Triton X-100 (Sigma) in PBS. Cells were then stained with antibody specific to α-smooth muscle actin (αSMA; Abcam) (ref. 1 and 2 above) in 3% Bovine Serum Albumin (BSA; Sigma) and 0.3% Triton X-100 (Sigma) in PBS, and incubated overnight at 4° C. Cells were then washed 3 times with PBS, followed by incubation with Alexa Flor-647 conjugated secondary antibody (Life Technologies [Thermo Fisher Scientific]) and DAPI at room temperature for 1 hour. Cells were then washed 3 times with PBS and plates were sealed for imaging. αSMA staining was imaged by excitation at 630 nm and emission at 665 nm and quantified using the Compartmental Analysis program on the CellInsight CX5 (Thermo Scientific). Dead or apoptotic cells were excluded from analysis based on positive SYTOX green staining. % of total cells positive for αSMA were counted in each well and normalized to the average of 11 wells treated with TGF-β1 on the same plate using Dotmatics' Studies Software. The normalized averages (fold change over untreated) of 3 replicate wells for each compound concentration were used to create dose-responses curves and EC50 values were calculated using non-linear regression curve fit in the Dotmatics' Studies Software. For EC50 of >10 μM, the percent inhibition at 10 μM is provided.

[2] = tested on: primary human mesenchymal stem cells (hMSCs); test: Chondrogenesis induction in mesenchymal stem cells (nodule count); assay type: cell-based; conditions: 144 h, 6 days; for EC50: concentration required to induce 50% levels of chondrogenesis vs TGF-β3, read-out: Conc (nM) of 50% TGF-β3 activity; for Emax: relative to TGF-β3 (10 ng/mL) positive control, read-out: Max. Activity as % TGF-β3 activity
Description: Representative compounds were screened using primary human mesenchymal stem cells (hMSCs) to determine their ability to induce chondrogenesis (process by which cartilage is developed).
Human Mesenchymal Stem Cell Culture: Primary human mesenchymal stem cells (hMSCs) were purchased from Lonza (Walkersville, Md.) and expanded in Mesenchymal Stem Cell Growth Media (Lonza). Cells between passage 3 and 6 were used for the experiments.
Compound Screening: Each compound was dissolved in DMSO as a 10 mM stock and used to prepare compound source plates. Serial dilution (1:3, 6-point dose-response curves from 2700 nM to 10 nM) and compound transfer was performed using the ECHO 550 (Labcyte, Sunnyvale, Calif.) into 96-well clear bottom assay plates (Greiner Bio-One) with appropriate DMSO backfill for a final DMSO concentration of 0.03%. hMSCs were plated at 20,000 cells/well in 250 μL/well Incomplete Chondrogenic Induction Medium (Lonza; DMEM, dexamethasone, ascorbate, insulin-transferrin-selenium [ITS supplement], gentamycin-amphotericin [GA-1000], sodium pyruvate, proline and L-glutamine). TGF-β3 (10 ng/mL) was used as a positive control for differentiation while negative control wells were treated with 75 nL DMSO for normalization and calculating EC50 values. Cells were incubated at 37° C. and 5% CO2 for 6 days. To image chondrogenic nodules, the cells were fixed using 4% formaldehyde (Electron Microscopy Sciences), and stained with 2 μg/mL Rhodamine B (Sigma-Aldrich) and 20 μM Nile Red (Sigma-Aldrich) [Johnson K., et. al, A Stem Cell-Based Approach to Cartilage Repair, Science, (2012). 336(6082), 717-721]. The nodules imaged (4 images per well at 4× magnification) by excitation at 531 nm and emission at 625 nm and quantified using the CellInsight CX5 (Thermo Scientific). Number of nodules in each well was normalized to the average of 3 DMSO treated wells on the same plate using Excel (Microsoft Inc.). The normalized averages (fold change over DMSO) of 3 replicate wells for each compound concentration were calculated. Due to solubility limitations of some of the compounds, curve fitting was incomplete leading to inaccurate EC50 determinations.
Using TGF-β3 as a positive control, the concentration of representative compounds required to induce 50% levels of chondrogenesis is reported. In addition, the maximum activity of each compound and the respective dose that each compound reached maximum chondrogenesis activity is reported.

Row | EC50 [2] | SMILES | EC50 [1] | inhibition at 10 µM [1] | Emax [2]
1 | 900 nM | Fc1cccc(-c2ccnc3[nH]c(-c4n[nH]c5ccc(-c6cncc(CN7CCCCC7)c6)nc45)cc23)c1 [Compound 15, 3-(4-(3-Fluorophenyl)-1H-pyrrolo[2,3-b]pyridin-2-yl)-5-(5-(piperidin-1-ylmethyl)pyridin-3-yl)-1H-pyrazolo[4,3-b]pyridine] | > 10000 nM | 10.3% | 62%
2 |  | CN(C)Cc1cncc(-c2ccc3[nH]nc(-c4cc5c(-c6ccccc6F)ccnc5[nH]4)c3n2)c1 [Compound 69, 1-(5-(3-(4-(2-Fluorophenyl)-1H-pyrrolo[2,3-b]pyridin-2-yl)-1H-pyrazolo [4,3-b]pyridin-5-yl)pyridin-3-yl)-N,N-dimethylmethanamine] | 2000 nM |  | 44%
3 | 100 nM | c1cncc(-c2ccc3[nH]nc(-c4cc5c(-c6cccnc6)ccnc5[nH]4)c3n2)c1 [Compound 88, 5-(Pyridin-3-yl)-3-(4-(pyridin-3-yl)-1H-pyrrolo[2,3-b]pyridin-2-yl)-1H-pyrazolo[4,3-b]pyridine] | > 10000 nM | 25.3% | 59%
4 | 30 nM | CN(C)c1cncc(-c2ccc3[nH]nc(-c4cc5c(-c6cccnc6)ccnc5[nH]4)c3n2)c1 [Compound 91, N,N-Dimethyl-5-(3-(4-(pyridin-3-yl)-1H-pyrrolo[2,3-b]pyridin-2-yl)-1H-pyrazolo[4,3-b]pyridin-5-yl)pyridin-3-amine] | 2190 nM |  | 71%
5 |  | CC(C)Nc1cncc(-c2ccc3[nH]nc(-c4cc5c(-c6cccnc6)ccnc5[nH]4)c3n2)c1 [Compound 96, N-Isopropyl-5-(3-(4-(pyridin-3-yl)-1H-pyrrolo[2,3-b]pyridin-2-yl)-1H-pyrazolo[4,3-b]pyridin-5-yl)pyridin-3-amine] | > 10000 nM | 0% | 47%
6 | 300 nM | FC1(F)CCN(Cc2cncc(-c3ccc4[nH]nc(-c5cc6c(-c7cccnc7)ccnc6[nH]5)c4n3)c2)C1 [Compound 110, 5-(5-((3,3-Difluoropyrrolidin-1-yl)methyl)pyridin-3-yl)-3-(4-(pyridin-3-yl)-1H-pyrrolo[2,3-b]pyridin-2-yl)-1H-pyrazolo[4,3-b]pyridine] | 213 nM |  | 80%
7 |  | Nc1cncc(-c2ccc3[nH]nc(-c4cc5c(-c6ccncc6)ccnc5[nH]4)c3n2)c1 [Compound 115, 5-(3-(4-(Pyridin-4-yl)-1H-pyrrolo[2,3-b]pyridin-2-yl)-1H-pyrazolo[4,3-b]pyridin-5-yl)pyridin-3-amine] | > 10000 nM | 28.8% | 27%
8 | 300 nM | Cc1ccncc1-c1ccc2[nH]nc(-c3cc4c(-c5ccncc5)ccnc4[nH]3)c2n1 [Compound 117, 5-(4-Methylpyridin-3-yl)-3-(4-(pyridin-4-yl)-1H-pyrrolo[2,3-b]pyridin-2-yl)-1H-pyrazolo[4,3-b]pyridine] | 600 nM |  | 56%
9 | 2700 nM | c1cc(-c2ccnc3[nH]c(-c4n[nH]c5ccc(-c6cncc(CN7CCCCC7)c6)nc45)cc23)ccn1 [Compound 127, 5-(5-(Piperidin-1-ylmethyl)pyridin-3-yl)-3-(4-(pyridin-4-yl)-1H-pyrrolo[2,3-b]pyridin-2-yl)-1H-pyrazolo[4,3-b]pyridine] | > 10000 nM | 0% | 55%
10 | 100 nM | c1cc(-c2ccnc3[nH]c(-c4n[nH]c5ccc(-c6cncc(CNCC7CCCC7)c6)nc45)cc23)ccn1 [Compound 137, 1-Cyclopentyl-N-((5-(3-(4-(pyridin-4-yl)-1H-pyrrolo[2,3-b]pyridin-2-yl)-1H-pyrazolo[4,3-b]pyridin-5-yl)pyridin-3-yl)methyl)methanamine] | > 10000 nM | 23.8% | 67%
11 | 900 nM | Cc1ccncc1-c1ccc2[nH]nc(-c3cc4c(N5CCCCC5)ccnc4[nH]3)c2n1 [Compound 173, 5-(4-Methylpyridin-3-yl)-3-(4-(piperidin-1-yl)-1H-pyrrolo[2,3-b]pyridin-2-yl)-1H-pyrazolo[4,3-b]pyridine] | > 10000 nM | 10.6% | 101%
12 | 10 nM | CN(C)Cc1cncc(-c2ccc3[nH]nc(-c4cc5c(N6CCCCC6)ccnc5[nH]4)c3n2)c1 [Compound 181, N,N-Dimethyl-1-(5-(3-(4-(piperidin-1-yl)-1H-pyrrolo[2,3-b]pyridin-2-yl)-1H-pyrazolo[4,3-b]pyridin-5-yl)pyridin-3-yl)methanamine] | 7780 nM |  | 82%
13 | 10 nM | CCCCC(=O)Nc1cncc(-c2ccc3[nH]nc(-c4cc5c(N6CCCCC6)ccnc5[nH]4)c3n2)c1 [Compound 187, N-(5-(3-(4-(Piperidin-1-yl)-1H-pyrrolo[2,3-b]pyridin-2-yl)-1H-pyrazolo[4,3-b]pyridin-5-yl)pyridin-3-yl)pentanamide] | 4880 nM |  | 92%
14 |  | FC1(F)CCN(Cc2cncc(-c3ccc4[nH]nc(-c5cc6c(N7CCCCC7)ccnc6[nH]5)c4n3)c2)C1 [Compound 194, 5-(5-((3,3-Difluoropyrrolidin-1-yl)methyl)pyridin-3-yl)-3-(4-(piperidin-1-yl)-1H-pyrrolo[2,3-b]pyridin-2-yl)-1H-pyrazolo[4,3-b]pyridine] | 2550 nM |  | 38%
15 | 10 nM | c1ncc(-c2ccc3[nH]nc(-c4cc5c(N6CCCCC6)ccnc5[nH]4)c3n2)cn1 [Compound 195, 3-(4-(Piperidin-1-yl)-1H-pyrrolo[2,3-b]pyridin-2-yl)-5-(pyrimidin-5-yl)-1H-pyrazolo[4,3-b]pyridine] | 2040 nM |  | 100%
16 |  | CC(C)CC(=O)Nc1cncc(-c2ccc3[nH]nc(-c4cc5c(N6CCN(C)CC6)ccnc5[nH]4)c3n2)c1 [Compound 226, 3-Methyl-N-(5-(3-(4-(4-methylpiperazin-1-yl)-1H-pyrrolo[2,3-b]pyridin-2-yl)-1H-pyrazolo[4,3-b]pyridin-5-yl)pyridin-3-yl)butanamide] | 1760 nM |  | 49%
